# Reference: US7226944B2, “Taxanes having a C7 carbonate substituent” (FSU Research Foundation, Inc., priority 2000, dated 2007)
# Tested on: not given
# Assay: not given
# Details: not given
row,SMILES,melting point [°C]
1,"COC(=O)O[C@H]1C[C@H]2OC[C@@]2(OC(C)=O)C2[C@H](OC(=O)c3ccccc3)[C@]3(O)C[C@H](OC(=O)[C@H](O)[C@@H](NC(=O)OC(C)(C)C)c4cccs4)C(C)=C([C@@H](O)C(=O)[C@@]21C)C3(C)C (some centres unmarked) [Compound 4262, 3′-Desphenyl-3′-(2-thienyl)-7-methoxycarbonyl taxotere]",142.5 to 143

# Tested on: HCT116
# Assay: In vitro cytotoxicity measured by the cell colony formation assay
# Format: cell-based
# Details: HCT116 cells; drug concentration producing 50% inhibition of colony formation; 72 h with drug at 37° C., colonies counted after 7 days; read-out: IN VITRO ID 50 (nm) HCT116
# Method: Four hundred cells (HCT116) were plated in 60 mm Petri dishes containing 2.7 mL of medium (modified McCoy's 5a medium containing 10% fetal bovine serum and 100 units/mL penicillin and 100 µg/mL streptomycin). The cells were incubated in a CO2 incubator at 37° C. for 5 h for attachment to the bottom of Petri dishes. The compounds identified in Example 2 were made up fresh in medium at ten times the final concentration, and then 0.3 mL of this stock solution was added to the 2.7 mL of medium in the dish. The cells were then incubated with drugs for 72 h at 37° C. At the end of incubation the drug-containing media were decanted, the dishes were rinsed with 4 mL of Hank's Balance Salt Solution (HBSS), 5 mL of fresh medium was added, and the dishes were returned to the incubator for colony formation. The cell colonies were counted using a colony counter after incubation for 7 days.
row,SMILES,IC50 [nM]
1,C/C=C/C(=O)N[C@@H](c1ccco1)[C@@H](O)C(=O)O[C@H]1C[C@@]2(O)[C@@H](OC(=O)c3ccccc3)C3[C@](C)(C(=O)[C@H](O)C(=C1C)C2(C)C)[C@@H](OC(=O)OC)C[C@H]1OC[C@@]31OC(C)=O (some centres unmarked) [Compound 4744],< 1
2,CCOC(=O)O[C@H]1C[C@H]2OC[C@@]2(OC(C)=O)C2[C@H](OC(=O)c3ccccc3)[C@]3(O)C[C@H](OC(=O)[C@H](O)[C@@H](NC(=O)c4cccs4)c4cccs4)C(C)=C([C@@H](O)C(=O)[C@@]21C)C3(C)C (some centres unmarked) [Compound 4455],< 1
3,CCOC(=O)O[C@H]1C[C@H]2OC[C@@]2(OC(C)=O)C2[C@H](OC(=O)c3ccccc3)[C@]3(O)C[C@H](OC(=O)[C@H](O)[C@@H](NC(=O)OC(C)C)c4cccs4)C(C)=C([C@@H](O)C(=O)[C@@]21C)C3(C)C (some centres unmarked) [Compound 4151],< 1
4,CCC(C)(C)OC(=O)N[C@@H](c1ccco1)[C@@H](O)C(=O)O[C@H]1C[C@@]2(O)[C@@H](OC(=O)c3ccccc3)C3[C@](C)(C(=O)[C@H](O)C(=C1C)C2(C)C)[C@@H](OC(=O)OCc1ccccc1)C[C@H]1OC[C@@]31OC(C)=O (some centres unmarked) [Compound 6246],< 1
5,CCOC(=O)O[C@H]1C[C@H]2OC[C@@]2(OC(C)=O)C2[C@H](OC(=O)c3ccccc3)[C@]3(O)C[C@H](OC(=O)[C@H](O)[C@@H](NC(=O)OCC(C)C)c4cccs4)C(C)=C([C@@H](O)C(=O)[C@@]21C)C3(C)C (some centres unmarked) [Compound 4363],< 10
6,COC(=O)O[C@H]1C[C@H]2OC[C@@]2(OC(C)=O)C2[C@H](OC(=O)c3ccccc3)[C@]3(O)C[C@H](OC(=O)[C@H](O)[C@@H](NC(=O)OC(C)C)c4cccs4)C(C)=C([C@@H](O)C(=O)[C@@]21C)C3(C)C (some centres unmarked) [Compound 4144],< 1
7,CCOC(=O)O[C@H]1C[C@H]2OC[C@@]2(OC(C)=O)C2[C@H](OC(=O)c3ccccc3)[C@]3(O)C[C@H](OC(=O)[C@H](O)[C@@H](NC(=O)c4ccccc4)c4cccs4)C(C)=C([C@@H](O)C(=O)[C@@]21C)C3(C)C (some centres unmarked) [Compound 4188],< 10
8,COC(=O)O[C@H]1C[C@H]2OC[C@@]2(OC(C)=O)C2[C@H](OC(=O)c3ccccc3)[C@]3(O)C[C@H](OC(=O)[C@H](O)[C@H](C=C(C)C)NC(=O)OCC(C)C)C(C)=C([C@@H](O)C(=O)[C@@]21C)C3(C)C (some centres unmarked) [Compound 4644],< 10
9,CCOC(=O)O[C@H]1C[C@H]2OC[C@@]2(OC(C)=O)C2[C@H](OC(=O)c3ccccc3)[C@]3(O)C[C@H](OC(=O)[C@H](O)[C@@H](NC(=O)OC(C)(C)C)c4cccs4)C(C)=C([C@@H](O)C(=O)[C@@]21C)C3(C)C (some centres unmarked) [Compound 4234],< 1
10,CC(=O)O[C@@]12CO[C@@H]1C[C@H](OC(=O)OCc1ccccc1)[C@@]1(C)C(=O)[C@H](O)C3=C(C)[C@@H](OC(=O)[C@H](O)[C@@H](NC(=O)C=C(C)C)c4ccco4)C[C@@](O)([C@@H](OC(=O)c4ccccc4)C12)C3(C)C (some centres unmarked) [Compound 5466],< 1
11,COC(=O)O[C@H]1C[C@H]2OC[C@@]2(OC(C)=O)C2[C@H](OC(=O)c3ccccc3)[C@]3(O)C[C@H](OC(=O)[C@H](O)[C@@H](NC(=O)OC(C)(C)C)c4ccco4)C(C)=C([C@@H](O)C(=O)[C@@]21C)C3(C)C (some centres unmarked) [Compound 4533],< 1
12,CC(=O)O[C@H]1C[C@H]2OC[C@@]2(OC(C)=O)C2[C@H](OC(=O)c3ccccc3)[C@]3(O)C[C@H](OC(=O)[C@H](O)[C@@H](NC(=O)OCC(C)C)c4ccsc4)C(C)=C([C@@H](O)C(=O)[C@@]21C)C3(C)C (some centres unmarked) [Compound 4515],< 10
13,C/C=C/C(=O)N[C@@H](c1ccco1)[C@@H](O)C(=O)O[C@H]1C[C@@]2(O)[C@@H](OC(=O)c3ccccc3)C3[C@](C)(C(=O)[C@H](O)C(=C1C)C2(C)C)[C@@H](OC(=O)OCC)C[C@H]1OC[C@@]31OC(C)=O (some centres unmarked) [Compound 4818],< 1
14,COC(=O)O[C@H]1C[C@H]2OC[C@@]2(OC(C)=O)C2[C@H](OC(=O)c3ccccc3)[C@]3(O)C[C@H](OC(=O)[C@H](O)[C@H](C=C(C)C)NC(=O)OC(C)(C)C)C(C)=C([C@@H](O)C(=O)[C@@]21C)C3(C)C (some centres unmarked) [Compound 4484],< 1
15,COC(=O)O[C@H]1C[C@H]2OC[C@@]2(OC(C)=O)C2[C@H](OC(=O)c3ccccc3)[C@]3(O)C[C@H](OC(=O)[C@H](O)[C@@H](NC(=O)OC(C)(C)C)c4ccoc4)C(C)=C([C@@H](O)C(=O)[C@@]21C)C3(C)C (some centres unmarked) [Compound 4434],< 1
16,CCOC(=O)O[C@H]1C[C@H]2OC[C@@]2(OC(C)=O)C2[C@H](OC(=O)c3ccccc3)[C@]3(O)C[C@H](OC(=O)[C@H](O)[C@@H](NC(=O)OC(C)(C)C)c4ccsc4)C(C)=C([C@@H](O)C(=O)[C@@]21C)C3(C)C (some centres unmarked) [Compound 4500],< 1
17,CCOC(=O)O[C@H]1C[C@H]2OC[C@@]2(OC(C)=O)C2[C@H](OC(=O)c3ccccc3)[C@]3(O)C[C@H](OC(=O)[C@H](O)[C@H](C=C(C)C)NC(=O)OC(C)(C)C)C(C)=C([C@@H](O)C(=O)[C@@]21C)C3(C)C (some centres unmarked) [Compound 4524],< 1
18,CCOC(=O)O[C@H]1C[C@H]2OC[C@@]2(OC(C)=O)C2[C@H](OC(=O)c3ccccc3)[C@]3(O)C[C@H](OC(=O)[C@H](O)[C@@H](NC(=O)OC(C)(C)C)c4ccoc4)C(C)=C([C@@H](O)C(=O)[C@@]21C)C3(C)C (some centres unmarked) [Compound 4464],< 1
19,C/C=C/C(=O)N[C@@H](c1cccs1)[C@@H](O)C(=O)O[C@H]1C[C@@]2(O)[C@@H](OC(=O)c3ccccc3)C3[C@](C)(C(=O)[C@H](O)C(=C1C)C2(C)C)[C@@H](OC(=O)OC)C[C@H]1OC[C@@]31OC(C)=O (some centres unmarked) [Compound 4766],< 1
20,COC(=O)O[C@H]1C[C@H]2OC[C@@]2(OC(C)=O)C2[C@H](OC(=O)c3ccccc3)[C@]3(O)C[C@H](OC(=O)[C@H](O)[C@@H](NC(=O)OCC(C)C)c4ccoc4)C(C)=C([C@@H](O)C(=O)[C@@]21C)C3(C)C (some centres unmarked) [Compound 4584],< 10
21,COC(=O)O[C@H]1C[C@H]2OC[C@@]2(OC(C)=O)C2[C@H](OC(=O)c3ccccc3)[C@]3(O)C[C@H](OC(=O)[C@H](O)[C@@H](NC(=O)OC(C)(C)C)c4ccsc4)C(C)=C([C@@H](O)C(=O)[C@@]21C)C3(C)C (some centres unmarked) [Compound 4474],< 1

# Same assay, conditions: Homo sapiens, HCT-116; read-out: IN VITRO ID 50 (nm) HCT116
row,SMILES,IC50 [nM]
1,"COC(=O)O[C@H]1C[C@H]2OC[C@@]2(OC(C)=O)C2[C@H](OC(=O)c3ccccc3)[C@]3(O)C[C@H](OC(=O)[C@H](O)[C@@H](NC(=O)OC(C)(C)C)c4cccs4)C(C)=C([C@@H](O)C(=O)[C@@]21C)C3(C)C (some centres unmarked) [Compound 4262, 3′-Desphenyl-3′-(2-thienyl)-7-methoxycarbonyl taxotere]",< 1
